# Assay results reported in patent publication US12263202B2, “Method of treating melanocortin-4 receptor pathway-associated disorders” (CHARITÉ—UNIVERSITÄTSMEDIZIN BERLIN, priority 2015, dated 2025).
# “Also recorded” adds a separate entry of the source.
# What was measured:
# [1] = test system: Magel2-null mice; experiment: Food intake and energy expenditure in Magel2-null mice (mouse model of PWS); type: in vivo
# Protocol: (§1) Experiments were performed to determine the effect of a MC4R agonist, setmelanotide, on Magel2-null mice. Setmelanotide was evaluated in wild type and Magel2-null mice. Adult mice (N=6 per group) were acclimated to metabolic chambers, and food intake and energy expenditure (kcal/h) were measured over time. Mice were 8 weeks old. […] Vehicle and drug (setmelanotide) were administered intraperitoneally (i.p.) (n=6 for each treatment). A 0.1 mg/kg dose of setmelanotide was injected i.p. before the start of the dark cycle in the mice.
# (§2) Food intake (cumulative in grams (g)) through 3 hours post dose and overnight cumulative food intake were assessed. Energy expenditure was also measured after dosing. Post-setmelanotide treatment data were compared to the data from post-vehicle injections in the same groups of mice. Statistical analysis was by two-way ANOVA followed by Bonferroni post-testing.
# [2] = cited from earlier work
# [3] = test system: POMC deficient patient; experiment: Phase 2 open label study of setmelanotide in an adult POMC deficient patient with severe obesity and hyperphagia; type: in vivo, human
# Protocol: See, e.g., Chen et al. J. Clin. Endocrinol. Metab. 2015; 100:1639-45. The study was an investigator initiated, open label, phase 2, non-randomized proof of concept study (EudraCT No. 2014-002392-28; Clinical Trials Identifier No. NCT02507492) with three parts: pre-study evaluation, main study (about 13 weeks) and after a short interval off drug, a long-term extension phase.
# In the pre-study period, baseline examinations were performed, including analysis of metabolic parameters, including OGTT, GnRH test, fasting blood glucose, Leptin measurements as well as bioelectrical impedance analysis (BIA, according standard protocols; Data-in, Nutriguard-MS), indirect calorimetry (CareFusion, VMAX® Encore system), heart rate and blood pressure monitoring (after the first injection and after each dosage escalation blood pressure was measured regularly over 12 hours; in addition, blood was measured at home 3 times daily) as well as a dermatological and psychological examination. All parameters were in the normal range with the exception of elevated fasting insulin reflecting insulin resistance. These measurements were repeated after 13 and 26 weeks of treatment. Baseline examination also included physical examination, e.g., measurement of height and body-weight. Setmelanotide treatment was started at a dose of 0.25 mg subcutaneously (s.c.) once daily. The dose escalated every 1-2 weeks after careful assessment of safety and weight loss. After the first injection and after each dosage escalation, blood pressure was measured regularly over 12 hours. In addition, blood was measured 3 times daily. Setmelanotide injections were given once a day.
# After about 90 days of treatment (main study), assessments were repeated, including assessments of metabolic parameters, e.g., blood tests, skin examination, and psychological evaluation. Setmelanotide treatment was ended, and a rapid and large weight gain off-treatment was observed. Subsequently, setmelanotide treatment was continued for another 3 months (extension phase) along with continued assessments (of metabolic parameters). The hunger score was evaluated using a Likert hunger scale from 0 to 10 points (0=no hunger; 10=severe hunger). See, e.g., Sibilia. Psychologicol Topics 19 (2010), 2, 341-354.
# Bioelectric Impedance Analysis (BIA) and indirect calorimetric analysis was performed according standard protocols, e.g., as described in Barak et al. JPEN J. Parenter. Enteral Nutr. 27.1(2003):43-6; and Compher et al. J. Am. Diet Assoc.
# Statistical analysis: The values of systolic and diastolic blood pressure and heart rate were analyzed with a […].
# [4] = test system: wild-type mice; experiment: Food intake over four hours in wild-type mice; type: in vivo
# Protocol: (§3) To determine this, wild-type and db/db mice were exposed to vehicle or varying concentrations of setmelanotide (0.0554 mpk; 0.137 mpk, 0.344 mpk, or 1.37 mpk), and their food intake was measured over four hours.
# [5] = test system: wildtype mice; experiment: Food intake in wild type mice (comparison to Magel2-null); type: in vivo; details: 0.1 mg/kg i.p.
# Protocol: as §1, §2
# [6] = test system: wild-type obese human patients; experiment: Weight loss in wild-type obese human patients; type: in vivo; details: 0.01 mg/kg or 0.015 mg/kg twice daily (BID); after 2 or 4 weeks; placebo-subtracted
# Protocol: The effect of MC4R agonist setmelanotide on wild-type obese human patients was assessed. The patients were treated with placebo or setmelanotide twice daily (BID) at 0.01 mg/kg or 0.015 mg/kg. There were 9 patients in each treatment group (6 with setmelanotide and 3 with placebo).
# The amount of weight loss was determined after 2 weeks or after 4 weeks of treatment. […] The weight loss among the wild-type obese patients was about 0.6 to about 0.9 kg per week.
# [7] = test system: db/db mice; experiment: Food intake over four hours in db/db mice (leptin receptor deficient); type: in vivo
# Protocol: as §3
# [8] = after 26 weeks of treatment, listed as MC4R agonist
# [9] = after a 13-week treatment vs baseline
# [10] = bioelectrical impedance analysis
# [11] = off drug after 13 weeks of treatment (three weeks off drug)
# [12] = higher doses (0.137 mpk, 0.344 mpk, and 1.37 mpk), vs vehicle-treated mice
smiles,measurement,setting,value
"CC(=O)N[C@@H](CCCNC(=N)N)C(=O)N[C@H]1CSSC[C@@H](C(N)=O)NC(=O)[C@H](Cc2c[nH]c3ccccc23)NC(=O)[C@H](CCCNC(=N)N)NC(=O)[C@@H](Cc2ccccc2)NC(=O)[C@H](Cc2cnc[nH]2)NC(=O)[C@@H](C)NC1=O [setmelanotide, Ac-Arg-c(Cys-D-Ala-His-D-Phe-Arg-Trp-Cys)-NH2]",increase of energy expenditure,"[1]; 0.1 mg/kg i.p., 3 hours post-dosing, vs vehicle-dosed Magel2-null mice",11%
same,decrease of spontaneous food intake,"[1]; 0.1 mg/kg i.p., over the first 3 hours, P<0.05",~75%
same,"food intake suppression, duration","[1]; 0.1 mg/kg i.p., overnight",persisted throughout the dark cycle
same,cumulative food intake,"[1]; 0.1 mg/kg, P<0.05",statistically significant decrease
same,sensitivity compared with wildtype mice,"[1]; 0.1 mg/kg, food intake",much more sensitive than wildtype mice
same,effect on blood pressure,[2]; clinical trials (Chen et al. 2015),not been shown to adversely affect blood pressure
same,effects on sexual activity,[2]; in vivo,only infrequent
same,signs of increased blood pressure,[2]; in vivo,"little, if any"
same,tolerability,[2]; in vivo,generally well-tolerated
same,Likert hunger scale score,"[3]; 1 mg s.c. once daily, scale 0 to 10 (0=no hunger), baseline 9",5 points
same,rate of weight loss,"[3]; 1.5 mg dose, first treatment phase",2-3 kg per week
same,LDL,[3]; after 26 weeks of treatment,further reduced
same,total cholesterol,[3]; after 26 weeks of treatment,further reduced
same,total loss of body weight,[3]; after 26 weeks of treatment,35.9 kg
same,"total loss of body weight, % of initial body weight",[3]; after 26 weeks of treatment,23.2%
same,triglycerides,[3]; after 26 weeks of treatment,further reduced
same,total loss of body weight,[3]; [8],about 36 kg
same,"total loss of body weight, % of initial body weight",[3]; [8],about 23%
same,HDL cholesterol,[3]; [9],did not change
same,LDL cholesterol,[3]; [9],reduced
same,total cholesterol,[3]; [9],reduced
same,triglycerides,[3]; [9],did not change
same,"total weight loss, % of initial body weight",[3]; after the first 13 weeks of treatment,16.7%
same,total weight loss,"[3]; after the first 13 weeks of treatment, baseline 155 kg",25.8 kg
same,BMI,"[3]; after the first 13 weeks, baseline 49.8",41.5 kg/m2
same,end body weight,"[3]; after the first 13 weeks, baseline 155 kg",129.2 kg
same,BMI SDS,"[3]; after the first 13 weeks, baseline +4.52",+3.86
same,quality of life,[3]; after the initiation of treatment,improved dramatically
same,loss of body weight,[3]; at 86 weeks of treatment,60.5 kg
same,composition of the reduction of body weight,[3]; [10],mainly due to a loss of body-fat mass
same,lean body mass,[3]; [10],not greatly altered
same,resting energy expenditure (REE)/kg lean body mass,[3]; despite severe weight loss,stayed relatively stable
same,blood pressure,[3]; during all steps of dose escalation,no increase
same,diastolic BP,[3]; during the study,significant decreases
same,heart rate (HR),[3]; during the study,significant decreases
same,systolic BP,[3]; during the study,significant decreases
same,adverse event reported by the patient,"[3]; human, in vivo",infrequent dry mouth
same,safety laboratories,"[3]; human, in vivo",no changes in safety laboratories of clinical concern
same,tolerability of treatment,"[3]; human, in vivo",well tolerated
same,changes in hunger,"[3]; initially, with low dosage",only little changes
same,weight loss,"[3]; initially, with low dosage",moderate
same,Likert hunger score after treatment was stopped,[3]; [11],7 points
same,weight regained after treatment was stopped,[3]; [11],4.8 kg
same,blood glucose values (fasting and after glucose challenge),"[3]; oral glucose tolerance test, during the study",remained always in the normal range; also recorded: relatively stable
same,weight loss per week,"[3]; overall, over the course of 26 weeks of treatment",2-2.5 kg per week
same,rate of weight loss,[3]; second treatment phase (1 mg for 4 weeks and 1.5 mg thereafter),1-2 kg per week
same,elevated insulin levels / insulin resistance (insulin sensitivity),[3]; under setmelanotide treatment,improved significantly
same,serum leptin concentrations,[3]; with loss of body-fat mass,significant decrease
same,food intake vs vehicle treated mice,"[4]; 0.0544 mpk dose, 4 hour timepoint",identical food intake
same,food intake,"[4]; 0.0544 mpk dose, at 1 and 2 hours",Decreased food intake
same,food intake,[4]; [12],significantly decreased food intake
same,food intake,[5],retained normal levels of food intake
same,weight loss,[6],0.6-0.9 kg per week
same,suppression of food intake,"[7]; 0.0544 mpk dose, end of the 4 hour time period",about 80%
same,suppression of food intake compared with wildtype mice,[7]; all concentrations,more profound suppression of foodintake than wildtype mice
same,food intake,[7]; [12],significantly decreased food intake
